Patent US8802597B2, “Herbicidal pyrimidines” (E I du Pont de Nemours and Company, priority 2003, dated 2014)
Read-outs that look alike come from different tables or passages of the source.

What was measured:
Format in all cases: in vivo
[1] = tested on: barnyardgrass (Echinochloa crus-galli); assay: Test B flooded paddy test; settings: Echinochloa crus-galli, Flood, scale 0 to 100, read-out: Plant response rating, Barnyardgrass; for pest or weed control at 125 g/ha: 125 g ai/ha; for pest or weed control at 500 g/ha: 500 g ai/ha
How it was run: (§1)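 Rice, umbrella sedge, duck salad and barnyardgrass grown to 2-leaf stage under flooded paddy conditions and treated with formulated test chemicals. Kept in greenhouse 13–15 days, then visually rated against untreated controls on a 0–100 scale (0 no effect, 100 complete control).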

[2] = tested on: duck salad (Heteranthera limosa); assay: Test B flooded paddy test; settings: Heteranthera limosa, Flood, scale 0 to 100, read-out: Plant response rating, Ducksalad; for pest or weed control at 125 g/ha: 125 g ai/ha; for pest or weed control at 500 g/ha: 500 g ai/ha
How it was run: as §1

rice (Oryza sativa) = assay: Test B flooded paddy test; settings: Oryza sativa, Flood, scale 0 to 100, read-out: Plant response rating, Rice; for plant injury at 125 g/ha: 125 g ai/ha; for plant injury at 500 g/ha: 500 g ai/ha
How it was run: as §1

[3] = tested on: umbrella sedge (Cyperus difformis); assay: Test B flooded paddy test; settings: Cyperus difformis, Flood, scale 0 to 100, read-out: Plant response rating, Sedge, Umbrella; for pest or weed control at 125 g/ha: 125 g ai/ha; for pest or weed control at 500 g/ha: 500 g ai/ha
How it was run: as §1

[4] = tested on: Surinam grass (Brachiaria decumbens); assay: Test B pre/postemergence; settings: Urochloa decumbens; for pest or weed control at 4 g/ha: 4 g ai/ha; for pest or weed control at 62 g/ha: 62 g ai/ha
How it was run: (§2)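 Plants treated pre- or postemergence were compared visually with controls after 13 to 15 days. Ratings ran from 0, no effect, to 100, complete control.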

[5] = tested on: barnyardgrass (Echinochloa crus-galli); assay: Test B pre/postemergence; settings: Echinochloa crus-galli, scale 0 to 100 (0 no effect, 100 complete control); for pest or weed control at 4 g/ha: 4 g ai/ha; for pest or weed control at 62 g/ha: 62 g ai/ha
How it was run: as §2

[6] = tested on: cocklebur (Xanthium strumarium); assay: Test B pre/postemergence; settings: Xanthium strumarium; for pest or weed control at 4 g/ha: 4 g ai/ha; for pest or weed control at 62 g/ha: 62 g ai/ha
How it was run: as §2

corn (Zea mays) = assay: Test B pre/postemergence; settings: Zea mays
How it was run: as §2

[7] = tested on: crabgrass (Digitaria sanguinalis); assay: Test B pre/postemergence; settings: Digitaria sanguinalis; for pest or weed control at 4 g/ha: 4 g ai/ha; for pest or weed control at 62 g/ha: 62 g ai/ha
How it was run: as §2

[8] = tested on: giant foxtail (Setaria faberii); assay: Test B pre/postemergence; settings: Setaria faberi; for pest or weed control at 4 g/ha: 4 g ai/ha; for pest or weed control at 62 g/ha: 62 g ai/ha
How it was run: as §2

[9] = tested on: lambsquarters (Chenopodium album); assay: Test B pre/postemergence; settings: Chenopodium album; for pest or weed control at 4 g/ha: 4 g ai/ha; for pest or weed control at 62 g/ha: 62 g ai/ha
How it was run: as §2

[10] = tested on: morningglory (Ipomoea coccinea); assay: Test B pre/postemergence; settings: Ipomoea; for pest or weed control at 4 g/ha: 4 g ai/ha; for pest or weed control at 62 g/ha: 62 g ai/ha
How it was run: as §2

[11] = tested on: pigweed (Amaranthus retroflexus); assay: Test B pre/postemergence; settings: Amaranthus retroflexus; for pest or weed control at 4 g/ha: 4 g ai/ha; for pest or weed control at 62 g/ha: 62 g ai/ha
How it was run: as §2

[12] = tested on: velvetleaf (Abutilon theophrasti); assay: Test B pre/postemergence; settings: Abutilon theophrasti; for pest or weed control at 4 g/ha: 4 g ai/ha; for pest or weed control at 62 g/ha: 62 g ai/ha
How it was run: as §2

[13] = tested on: wheat (Triticum aestivum); assay: Test B pre/postemergence; settings: Triticum aestivum, scale 0 to 100 (0 no effect, 100 complete control); for plant injury at 4 g/ha: 4 g ai/ha; for plant injury at 62 g/ha: 62 g ai/ha
How it was run: as §2

[14] = tested on: blackgrass (Alopecurus myosuroides); assay: Test B postemergence; settings: Alopecurus myosuroides, post-emergence, scale 0 to 100 (0 no effect, 100 complete control), read-out: Blackgrass plant response rating
How it was run: as §2

wild oat (Avena fatua) = assay: Test B postemergence; settings: Avena fatua, post-emergence, scale 0 to 100 (0 no effect, 100 complete control), read-out: Oat, Wild plant response rating
How it was run: as §2

[15] = post-emergence, Postemergence, scale 0 to 100 (0 no effect, 100 complete control), read-out: Surinam Grass plant response rating
[16] = post-emergence, Postemergence, read-out: Barnyardgrass plant response rating
[17] = pre-emergence, Preemergence, read-out: Plant response rating, Barnyardgrass
[18] = post-emergence, Postemergence, scale 0 to 100 (0 no effect, 100 complete control), read-out: Cocklebur plant response rating
[19] = post-emergence, Postemergence, scale 0 to 100 (0 no effect, 100 complete control), read-out: Crabgrass plant response rating
[20] = post-emergence, Postemergence, scale 0 to 100 (0 no effect, 100 complete control), read-out: Foxtail, Giant plant response rating
[21] = post-emergence, Postemergence, scale 0 to 100 (0 no effect, 100 complete control), read-out: Lambsquarters plant response rating
[22] = post-emergence, Postemergence, scale 0 to 100 (0 no effect, 100 complete control), read-out: Morningglory plant response rating
[23] = post-emergence, Postemergence, scale 0 to 100 (0 no effect, 100 complete control), read-out: Pigweed plant response rating
[24] = post-emergence, Postemergence, scale 0 to 100 (0 no effect, 100 complete control), read-out: Velvetleaf plant response rating
[25] = post-emergence, Postemergence, read-out: Wheat plant response rating
[26] = pre-emergence, Preemergence, read-out: Plant response rating, Wheat

Compound: COC(=O)c1nc(-c2ccc(Cl)cc2)nc(N)c1Cl [Compound 58, methyl 6-amino-5-chloro-2-(4-chlorophenyl)-4-pyrimidinecarboxylate]
- pest or weed control at 125 g/ha [1]: 0%
- pest or weed control at 500 g/ha [1]: 0%
- pest or weed control at 125 g/ha [2]: 100%
- pest or weed control at 500 g/ha [2]: 100%
- plant injury at 125 g/ha (rice (Oryza sativa)): 0%
- plant injury at 500 g/ha (rice (Oryza sativa)): 0%
- pest or weed control at 125 g/ha [3]: 90%
- pest or weed control at 500 g/ha [3]: 100%

Compound: COC(=O)c1nc(C2CC2)nc(N)c1OC [Compound 59]
- pest or weed control at 125 g/ha [1]: 0%
- pest or weed control at 500 g/ha [1]: 0%
- pest or weed control at 125 g/ha [2]: 0%
- pest or weed control at 500 g/ha [2]: 0%
- plant injury at 125 g/ha (rice (Oryza sativa)): 0%
- plant injury at 500 g/ha (rice (Oryza sativa)): 0%
- pest or weed control at 125 g/ha [3]: 0%
- pest or weed control at 500 g/ha [3]: 0%

Compound: Nc1nc(-c2ccc(Cl)cc2)nc(C(=O)O)c1Cl [Compound 65, 6-amino-5-chloro-2-(4-chlorophenyl)-4-pyrimidinecarboxylic acid]
- pest or weed control at 4 g/ha [4, 15]: 20%
- pest or weed control at 62 g/ha [4, 15]: 80%
- pest or weed control at 4 g/ha ([4]; pre-emergence, Preemergence, scale 0 to 100 (0 no effect, 100 complete control), read-out: Plant response rating, Surinam Grass): 0%
- pest or weed control at 62 g/ha ([4]; pre-emergence, Preemergence, scale 0 to 100, 0 no effect, 100 complete control, read-out: Plant response rating, Surinam Grass): 40%
- pest or weed control at 4 g/ha [5, 16]: 20%
- pest or weed control at 62 g/ha [5, 16]: 70%
- pest or weed control at 4 g/ha [5, 17]: 0%
- pest or weed control at 62 g/ha [5, 17]: 40%
- pest or weed control at 4 g/ha [6, 18]: 80%
- pest or weed control at 62 g/ha [6, 18]: 100%
- pest or weed control at 4 g/ha ([6]; pre-emergence, Preemergence, scale 0 to 100 (0 no effect, 100 complete control), read-out: Plant response rating, Cocklebur): 10%
- pest or weed control at 62 g/ha ([6]; pre-emergence, Preemergence, scale 0 to 100, 0 no effect, 100 complete control, read-out: Plant response rating, Cocklebur): 80%
- plant injury at 4 g/ha (corn (Zea mays); post-emergence, Postemergence, 4 g ai/ha, scale 0 to 100 (0 no effect, 100 complete control), read-out: Corn plant response rating): 10%
- plant injury at 62 g/ha (corn (Zea mays); post-emergence, Postemergence, 62 g ai/ha, scale 0 to 100 (0 no effect, 100 complete control), read-out: Corn plant response rating): 80%
- Corn plant response rating (crop injury, 0 = no effect, 100 = complete kill) at 4 g/ha (corn (Zea mays); pre-emergence, Preemergence, 4 g ai/ha, scale 0 to 100 (0 no effect, 100 complete control)): 0%
- Corn plant response rating (crop injury, 0 = no effect, 100 = complete kill) at 62 g/ha (corn (Zea mays); pre-emergence, Preemergence, 62 g ai/ha, scale 0 to 100, 0 no effect, 100 complete control): 0%
- pest or weed control at 4 g/ha [7, 19]: 20%
- pest or weed control at 62 g/ha [7, 19]: 80%
- pest or weed control at 4 g/ha ([7]; pre-emergence, Preemergence, scale 0 to 100 (0 no effect, 100 complete control), read-out: Plant response rating, Crabgrass): 20%
- pest or weed control at 62 g/ha ([7]; pre-emergence, Preemergence, scale 0 to 100, 0 no effect, 100 complete control, read-out: Plant response rating, Crabgrass): 70%
- pest or weed control at 4 g/ha [8, 20]: 40%
- pest or weed control at 62 g/ha [8, 20]: 70%
- pest or weed control at 4 g/ha ([8]; pre-emergence, Preemergence, scale 0 to 100 (0 no effect, 100 complete control), read-out: Plant response rating, Foxtail, Giant): 0%
- pest or weed control at 62 g/ha ([8]; pre-emergence, Preemergence, scale 0 to 100, 0 no effect, 100 complete control, read-out: Plant response rating, Foxtail, Giant): 30%
- pest or weed control at 4 g/ha [9, 21]: 80%
- pest or weed control at 62 g/ha [9, 21]: 100%
- pest or weed control at 4 g/ha ([9]; pre-emergence, Preemergence, scale 0 to 100 (0 no effect, 100 complete control), read-out: Plant response rating, Lambsquarters): 30%
- pest or weed control at 62 g/ha ([9]; pre-emergence, Preemergence, scale 0 to 100, 0 no effect, 100 complete control, read-out: Plant response rating, Lambsquarters): 90%
- pest or weed control at 4 g/ha [10, 22]: 70%
- pest or weed control at 62 g/ha [10, 22]: 80%
- pest or weed control at 4 g/ha ([10]; pre-emergence, Preemergence, scale 0 to 100 (0 no effect, 100 complete control), read-out: Plant response rating, Morningglory): 0%
- pest or weed control at 62 g/ha ([10]; pre-emergence, Preemergence, scale 0 to 100, 0 no effect, 100 complete control, read-out: Plant response rating, Morningglory): 30%
- pest or weed control at 4 g/ha [11, 23]: 70%
- pest or weed control at 62 g/ha [11, 23]: 100%
- pest or weed control at 4 g/ha ([11]; pre-emergence, Preemergence, scale 0 to 100 (0 no effect, 100 complete control), read-out: Plant response rating, Pigweed): 20%
- pest or weed control at 62 g/ha ([11]; pre-emergence, Preemergence, scale 0 to 100, 0 no effect, 100 complete control, read-out: Plant response rating, Pigweed): 100%
- pest or weed control at 4 g/ha [12, 24]: 50%
- pest or weed control at 62 g/ha [12, 24]: 90%
- pest or weed control at 4 g/ha ([12]; pre-emergence, Preemergence, scale 0 to 100 (0 no effect, 100 complete control), read-out: Plant response rating, Velvetleaf): 0%
- pest or weed control at 62 g/ha ([12]; pre-emergence, Preemergence, scale 0 to 100, 0 no effect, 100 complete control, read-out: Plant response rating, Velvetleaf): 70%
- plant injury at 4 g/ha [13, 25]: 0%
- plant injury at 62 g/ha [13, 25]: 50%
- plant injury at 4 g/ha [13, 26]: 20%
- plant injury at 62 g/ha [13, 26]: 80%
- pest or weed control at 4 g/ha ([14]; 4 g ai/ha): 20%
- pest or weed control at 62 g/ha ([14]; 62 g ai/ha): 70%
- pest or weed control at 4 g/ha (wild oat (Avena fatua); 4 g ai/ha): 0%
- pest or weed control at 62 g/ha (wild oat (Avena fatua); 62 g ai/ha): 40%
